Values of other authors in US20100055173A1, “RELEASE OF STATINS IN THE INTESTINE” (priority 2006, published 2010).
Read-outs that look alike come from different tables or passages of the source.

Legend:
plasma proteins = details: primarily to albumin
HMG-CoA reductase = target: T1, HMG-CoA reductase (Homo sapiens, UniProt P04035); details: considering the beta-hydroxy acid form as the drug
T1 sequence (P04035 1-888): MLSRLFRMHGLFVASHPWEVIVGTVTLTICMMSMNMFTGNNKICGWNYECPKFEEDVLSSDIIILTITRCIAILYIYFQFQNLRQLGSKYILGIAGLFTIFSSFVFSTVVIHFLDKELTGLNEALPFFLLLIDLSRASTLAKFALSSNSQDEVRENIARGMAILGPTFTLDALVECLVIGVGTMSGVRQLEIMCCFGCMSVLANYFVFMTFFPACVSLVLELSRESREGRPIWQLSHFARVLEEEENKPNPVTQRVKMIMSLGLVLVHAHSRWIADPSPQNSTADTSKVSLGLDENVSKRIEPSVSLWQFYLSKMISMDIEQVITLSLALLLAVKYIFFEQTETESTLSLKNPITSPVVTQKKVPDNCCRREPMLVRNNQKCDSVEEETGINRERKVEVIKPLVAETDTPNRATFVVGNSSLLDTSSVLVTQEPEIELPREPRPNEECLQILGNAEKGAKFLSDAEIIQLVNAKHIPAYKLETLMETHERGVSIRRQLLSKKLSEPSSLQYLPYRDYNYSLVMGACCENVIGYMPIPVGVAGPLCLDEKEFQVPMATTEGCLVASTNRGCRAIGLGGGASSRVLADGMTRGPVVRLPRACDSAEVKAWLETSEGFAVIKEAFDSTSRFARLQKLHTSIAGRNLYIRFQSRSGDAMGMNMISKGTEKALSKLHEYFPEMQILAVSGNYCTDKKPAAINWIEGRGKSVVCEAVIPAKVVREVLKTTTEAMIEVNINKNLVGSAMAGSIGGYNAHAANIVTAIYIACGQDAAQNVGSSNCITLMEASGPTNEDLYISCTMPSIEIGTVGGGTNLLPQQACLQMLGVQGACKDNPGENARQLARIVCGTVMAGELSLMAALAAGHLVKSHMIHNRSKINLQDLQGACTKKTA

SMILES | bound to plasma proteins (plasma proteins) | HMG-CoA reductase activity retained (HMG-CoA reductase) | bound to plasma proteins (plasma proteins; listed as Simvastatin)
CCC(C)(C)C(=O)O[C@H]1C[C@@H](C)C=C2C=C[C@H](C)[C@H](CC[C@@H](O)C[C@@H](O)CC(=O)O)[C@H]21 [open hydroxyl acid form, β-hydroxyacid-simvastatin] | 94.5% |  | 
CCC(C)(C)C(=O)O[C@H]1C[C@@H](CO)C=C2C=C[C@H](C)[C@H](CC[C@@H]3C[C@@H](O)CC(=O)O3)[C@H]21 [6-beta-hydroxymethyl, 6-beta-hydroxymethyl simvastatin] |  | approximately 40% | 
CCC(C)(C)C(=O)OC1CC(C)(O)C=C2C=CC(C)C(CCC3CC(O)CC(=O)O3)C21 (stereo not drawn) [6-beta-hydroxy simvastatin] |  | ~50% | 
CCC(C)(C)C(=O)O[C@H]1C[C@@H](C)C=C2C=C[C@H](C)[C@H](CC[C@@H]3C[C@@H](O)CC(=O)O3)[C@H]21 [simvastatin] | More than 98% |  | more than 95%
